Laboratory results published in US20060025485A1, “Hydroxybenazamide compounds for treatment of cancer” (priority 2004, published 2006).
Entries after “also recorded” stand apart in the source; their conditions may differ.

What was measured:
Raf-1/MEK/ERK [1] = assay: Western analysis of Raf-1 pathway activation, BON cells; type: cell-based, human; details: 2 days
Procedure: (§1) H727 and BON cells were plated at 50-60% confluence in 100 mm cell culture dishes and incubated overnight.
(§2) Western blot analysis. Cellular extracts were prepared and quantified by BCA protein assay kit (Pierce, Rockford, Ill.) as previously described (Sippel et al., 2003). 30-50 μg of denatured proteins from each sample underwent electrophoresis on a SDS-polyacrylamide gel and transferred to a nitrocellulose membranes (Schleicher and Schuell, Keene, N.H.). Membranes were blocked for 1 hr in milk solution (1×PBS, 5% non-fat dry milk, 0.05% Tween-20) and then incubated at 4° C. overnight with primary antibodies. The following primary antibody dilutions were used: phospho-ERK 1/2 (1:1,000); phospho-MEK (1:1,000); phospho-Raf-1 (Serine338) (1:1,000); p21 and p18, (1:1,000); (Cell Signal Technology, Beverly, Mass.), Chromogranin A (1:2,000; Zymed Laboratories, San Francisco, Calif.); MASH-1 (1:1000, BD Pharmingen) and G3PDH (1:10,000; Trevigen, Gaithersburg, Md.). After primary antibody incubation, membranes were washed 3×5 min in PBS-T wash buffer (1×PBS, 0.05% Tween 20). Then the membranes were incubated with either 1:2,000 dilution of goat anti-rabbit or goat anti-mouse secondary antibody (Cell Signal Technology, Beverly, Mass.) depending on the source of the primary antibody for 1 hr at room temperature. Membranes were washed 3×5 min in PBS-T wash buffer and developed by Immunstar™ HRP (Bio-Rad Laboratories, Hercules, Calif.) according to the manufacturer's directions. For the detection of hASH1 protein, membranes were developed with SuperSignal West Femto chemiluminescence reagent (Pierce).

Raf-1/MEK/ERK [2] = assay: Western analysis of Raf-1 pathway activation, H727 cells; type: cell-based, human
Procedure: as §1, §2

Chromogranin A [3] = assay: Western analysis of CgA, BON cells; type: cell-based, human; details: 20 to 100 μM, 2 days
Procedure: (§3) ZM 336372 treatment. H727 and BON cells were plated at 50-60% confluence in 100 mm cell culture dishes and incubated overnight.
as §2, with “Membranes were washed 3×5 min in PBS-T wash buffer and developed by Immunstar™ HRP (Bio-Rad Laboratories, Hercules, Calif.) according to the manufacturer's directions. For the detection of hASH1 protein, membranes were developed with SuperSignal West Femto chemiluminescence reagent (Pierce).” left out

Chromogranin A [4] = assay: Western analysis of CgA, H727 cells; type: cell-based, human
Procedure: as §3, §2

[5] = Drug toxicity assay, propidium iodide exclusion, H727 cells; type: cell-based, human; details: human, 500 μM, 2 days, compared to native H727 cells, read-out: viable cells by PI exclusion
Procedure: (§4) Drug Toxicity Assay. Briefly, cells were trypsinized and plated in a 6-well plate at 1-2×10^6 in triplicate and allowed to adhere overnight. […] As a control, DMSO was added. After incubation, the media was removed and cells were trypsinized and added to removed media. Cells were incubated on ice and 2.5 μg/ml Propidium Iodide (Sigma, St. Louis, Mo.) was added five minutes before flow cytometry (Ballestrero et al., 2004). Data was acquired using a FACSCalibur benchtop flow cytometer (Becton Dickenson, San Jose, Calif.) using CellQuest acquisition and analysis software.

H727 cells [6] = assay: as above; type: cell-based, human
Procedure: as §4

MiaPaCa-2 = assay: cell morphology after 9-day treatment, MiaPaCa-2 cells; type: cell-based
Excerpt: (§5) The results were assay using standard MTT, Western blot and cytoxocity assays.

HepG2 = HepG2 MTT Assay; type: cell-based; details: HepG2, three concentrations
Procedure: FIG. 18—HepG2 MTT Assay. The MTT assay is a laboratory test for measuring cellular proliferation (cell growth). MTT is added to a cell culture and is modified into a dye by enzymes associated with metabolic activity in a live cell. MTT is short for 3-(4,5-dimethylthiazol-2-yl)-2,5-diphenyltetrazolium bromide.
as §5

Panc-1 = Panc-1 MTT Assay; type: cell-based; set-up: dose or concentration left out as unconfirmed; details: Panc-1, three concentrations
p-MAPK = assay: Western blot of p-MAPK, MiaPaCa-2 cells; type: cell-based; details: all concentrations tested
Excerpt: as §5

H727 cells [7] = test system: H727 cells
Procedure: Cells tested (H727 and BON) were harvested by trypsinization and plated at a cell density of 3,000 cells/well of each microtiter plate. Cells were grown for 4 hrs at 37° C., with 5% CO2 in a humidified incubator to allow cell attachment to occur before compound addition. […] 10 μl of each compound stock was added to duplicate microtiter plates for each cell line. The final concentration of DMSO in all wells was 1%. To test 200 μM, 2% DMSO was added to each well. Data was compared to the effect of 2% DMSO. All compounds were tested in duplicate. Cells were incubated with the test compounds for 72 hrs before reading the assay. Then processing and calculation were performed according to manufacturer's directions for Cell Titer Glo Assay (Promega, Madison, Wis.).

Cc1ccc(NC(=O)c2cccc(N(C)C)c2)cc1NC(=O)c1ccc(O)cc1 [ZM336372, N-[5-(dimethyl-aminobensamido)-2-methylphenyl]-4-hydroxybenzamide]
phosphorylated Raf-1 at serine 338 (pRaf-1) (Raf-1/MEK/ERK [1]; 20 μM and 100 μM): dose dependent increases
phosphorylated ERK 1/2 (pERK, pMAPK) (Raf-1/MEK/ERK [1]; 20 to 100 μM): increased phosphorylation of both MEK and MAPK; also recorded: strong activation of ERK 1/2 and MEK 1/2; also recorded: increasing phosphorylated MEK and MAP kinase; also recorded: dose dependent increases
phosphorylated MEK 1/2 (pMEK) (Raf-1/MEK/ERK [1]; 20 to 100 μM): increased phosphorylation of both MEK and MAPK; also recorded: strong activation of ERK 1/2 and MEK 1/2; also recorded: increasing phosphorylated MEK and MAP kinase; also recorded: dose dependent increases
phosphorylated ERK 1/2 (pERK, pMAPK) (Raf-1/MEK/ERK [2]; 20 μM and 100 μM, 2 days): elevated phosphorylated MAPK; also recorded: activation of MEK 1/2 and ERK 1/2; also recorded: dose dependent increases
phosphorylated MEK 1/2 (pMEK) (Raf-1/MEK/ERK [2]; 20 μM and 100 μM, 2 days): activation of MEK 1/2 and ERK 1/2; also recorded: dose dependent increases
phosphorylated Raf-1 at serine 338 (pRaf-1) (Raf-1/MEK/ERK [2]; 20 μM and 100 μM, 2 days): phosphorylated at serine 338; also recorded: dose dependent increases
phosphorylated MEK 1/2 over time (Raf-1/MEK/ERK [2]; 100 μM, days 2, 4 and 6): prolonged; also recorded: greater than controls out to 6 days
CgA (chromogranin) level (Chromogranin A [3]): decreased secretion of chromogranin; also recorded: reduction in both CgA and hASH1; also recorded: decreasing expression of chromogranin at higher concentrations; also recorded: dose dependent decrease
CgA level (Chromogranin A [4]; 20 μM and 100 μM, 2 days): reduction in both CgA and hASH1; also recorded: dose dependent decrease
time of earliest detected reduction of CgA (Chromogranin A [4]; 100 μM, 10 minutes to 48 hours): 1 h
time of greatest comparative loss of CgA (Chromogranin A [4]; 100 μM, 10 minutes to 48 hours): 48 h
CgA level over days (Chromogranin A [4]; 100 μM, days 2, 4 and 6): decrease in chromogranin; also recorded: CgA depletion was maintained to 6 days; also recorded: persistent reduction of CgA to day 6
viability at 2 days, 500 µM [5]: 40 to 50%
cytolysis (H727 cells [6]; 20-100 μM): less than 20%
viability by PI exclusion (H727 cells [6]; 20 to 100 μM, 2 days, compared to DMSO): significant viability was maintained
cell death (MiaPaCa-2; MiaPaCa-2, 100 μM, 9-day cycle): significant cell death
cell numbers in culture (MiaPaCa-2; MiaPaCa-2, 100 microM, day 9): dramatic decrease in cell numbers
cellular proliferation (MTT) (HepG2): effects at low concentrations; also recorded: reduction in cellular proliferation
cellular proliferation (MTT) (Panc-1): inhibition at the highest concentration; also recorded: clear decrease
p-MAPK level (p-MAPK): increase in p-MAPK following treatment at all concentrations tested
IC50 (cytotoxicity) (H727 cells [7]): did not produce enough cellular cytotoxicity to estimate an IC50
